Measurements reported in patent US20250382301A1 (Arizona Board of Regents on Behalf of the University of …, priority 2022, published 2025).

Test system: WNT signaling (TopGFP reporter in Human Colonic Epithelial Cells (HCEC))
Assay: WNT Reporter Assay (TopGFP reporter)
Format: cell-based
Details: Homo sapiens, stimulated with 10 μM CHIR99021, 24 hours, TopGFP/mCherry
Procedure: WNT Reporter Assay: Human Colonic Epithelial Cells (HCEC) were cultured using 1×DMEM supplemented with 1% penicillin/streptomycin, 1% Glutamax, and 10% fetal bovine serum in 5% CO2 at 37° C. These cells were previously engineered to express the TopGFP reporter (Addgene #24304) using second generation lentiviral techniques. For the Wnt reporter assay, cells were seeded at 2000 cells per well in a 384-well black screenstar imaging microplates (Greiner #781866) and allowed to adhere overnight. The following day cells were stimulated to induce the Wnt pathway using 10 μM CHIR99021 (Selleck #S1263). […] Cells were incubated for 24 hours before fixing for 30 minutes with 4% paraformaldehyde/sucrose solution. Cells were permeabilized with 0.1% triton-x in PBS for 10 minutes and stained for DAPI for 30 minutes. Plates were imaged on a Nikon Ti2 Eclipse fluorescent microscope for DAPI, GFP, and mCherry. Using Nikon Elements software for analysis, nuclei were segmented based on DAPI and mean object intensity per cell for both TopGFP and the internal control (mCherry) was measured. To calculate the amount of Wnt activity, we took the mean intensity of TopGFP and divided it by the mean intensity of mCherry per cell to normalize individual cells. Curves and EC50s were plotted and calculated using Graphpad Prism software.

Compound | EC50
C[C@H]1CN(c2ccccn2)CCN1c1ncnc2ccc(-c3ccnc(N)c3)cc12 [Compound 45, (S)-4-(4-(2-methyl-4-(pyridin-2-yl)piperazin-1-yl)quinazolin-6-yl)pyridin-2-amine] | < 0.1 µM
Nc1cc(-c2ccc3ncnc(N4CCC5(CCN(c6ccccn6)CC5)C4)c3c2)ccn1 [Compound 64, 4-(4-(8-(pyridin-2-yl)-2,8-diazaspiro[4.5]decan-2-yl)quinazolin-6-yl)pyridin-2-amine] | 0.1 to 1 µM
Nc1cc(-c2ccc3ncnc(N4CCN(c5ccncc5)CC4)c3c2)ccn1 [Compound 6, 4-(4-(4-(pyridin-4-yl)piperazin-1-yl)quinazolin-6-yl)pyridin-2-amine] | 0.1 to 1 µM
O=C1CN(c2ncnc3ccc(-c4cn[nH]c4)cc23)CCN1c1ccccc1 [Compound 32, 4-(6-(1H-pyrazol-4-yl)quinazolin-4-yl)-1-phenylpiperazin-2-one] | < 0.1 µM
O=c1ccccn1C1CCN(c2ncnc3ccc(-c4c[nH]c5ncccc45)cc23)CC1 [Compound 58, 1-(1-(6-(1H-pyrrolo[2,3-b]pyridin-3-yl)quinazolin-4-yl)piperidin-4-yl)pyridin-2(1H)-one] | < 0.1 µM
Nc1cc(-c2ccc3ncnc(N4CCC(c5ccc(F)cc5F)CC4)c3c2)ccn1 [Compound 63, 4-(4-(4-(2,4-difluorophenyl)piperidin-1-yl)quinazolin-6-yl)pyridin-2-amine] | 0.1 to 1 µM
Nc1cc(-c2ccc3ncnc(N4CCC(c5ccccc5)CC4)c3c2)ccn1 [Compound 51, 4-(4-(4-phenylpiperidin-1-yl)quinazolin-6-yl)pyridin-2-amine] | 0.1 to 1 µM
c1ccc(N2CCN(c3ncnc4ccc(-c5cn[nH]c5)cc34)CC2)nc1 [Compound 14, 6-(1H-pyrazol-4-yl)-4-(4-(pyridin-2-yl)piperazin-1-yl)quinazoline] | < 0.1 µM
Nc1cc(-c2ccc3ncnc(N4CCCN(c5ccccn5)CC4)c3c2)ccn1 [Compound 56, 4-(4-(4-(pyridin-2-yl)-1,4-diazepan-1-yl)quinazolin-6-yl)pyridin-2-amine] | > 1 µM
Fc1cc(-c2ccc3ncnc(N4CCN(c5ccccn5)CC4)c3c2)ccn1 [Compound 13, 6-(2-fluoropyridin-4-yl)-4-(4-(pyridin-2-yl)piperazin-1-yl)quinazoline] | > 1 µM
Nc1cc(-c2ccc3ncnc(N4CCN(c5ccc(O)cc5)CC4)c3c2)ccn1 [Compound 27, 4-(4-(6-(2-aminopyridin-4-yl)quinazolin-4-yl)piperazin-1-yl)phenol] | 0.1 to 1 µM
Nc1cc(-c2ccc3ncnc(N4CCN(Cc5ccc(F)cc5)CC4)c3c2)ccn1 [Compound 43, 4-(4-(4-(4-fluorobenzyl)piperazin-1-yl)quinazolin-6-yl)pyridin-2-amine] | 0.1 to 1 µM
Nc1cc(-c2ccc3nccc(N4CCN(c5ccccc5)CC4)c3c2)ccn1 [Compound 25, 4-(4-(4-phenylpiperazin-1-yl)quinolin-6-yl)pyridin-2-amine] | < 0.1 µM
Nc1cc(-c2ccc3ncnc(N4CCN(c5ncccc5F)CC4)c3c2)ccn1 [Compound 61, 4-(4-(4-(3-fluoropyridin-2-yl)piperazin-1-yl)quinazolin-6-yl)pyridin-2-amine] | < 0.1 µM
Fc1ccc(CN2CCN(c3ncnc4ccc(-c5c[nH]c6ncccc56)cc34)CC2)cc1 [Compound 49, 4-(4-(4-fluorobenzyl)piperazin-1-yl)-6-(1H-pyrrolo[2,3-b]pyridin-3-yl)quinazoline] | < 0.1 µM
c1ccc(N2CCN(c3ccnc4ccc(-c5cn[nH]c5)cc34)CC2)cc1 [Compound 26, 4-(4-phenylpiperazin-1-yl)-6-(1H-pyrazol-4-yl)quinoline] | < 0.1 µM
COc1cc2c(cc1OC)CN(c1ncnc3ccc(-c4ccnc(N)c4)cc13)CC2 [Compound 35, 4-(4-(6,7-dimethoxy-3,4-dihydroisoquinolin-2(1H)-yl)quinazolin-6-yl)pyridin-2-amine] | 0.1 to 1 µM
Cc1cc(-c2ccc3ncnc(N4CCN(c5ccccn5)CC4)c3c2)ccn1 [Compound 12, 6-(2-methylpyridin-4-yl)-4-(4-(pyridin-2-yl)piperazin-1-yl)quinazoline] | > 1 µM
Nc1cc(-c2ccc3ncnc(N4C[C@H]5CN(c6ccccn6)C[C@H]5C4)c3c2)ccn1 [Compound 66, 4-(4-((3aR,6aS)-5-(pyridin-2-yl)hexahydropyrrolo[3,4-c]pyrrol-2(1H)-yl)quinazolin-6-yl)pyridin-2-amine] | 0.1 to 1 µM
CC(=O)N1CCN(c2ncnc3ccc(-c4ccnc(N)c4)cc23)CC1 [Compound 1, 1-(4-(6-(2-aminopyridin-4-yl)quinazolin-4-yl)piperazin-1-yl)ethan-1-one] | 0.1 to 1 µM
Nc1cc(-c2ccc3nccc(N4CCN(c5ccccc5F)CC4)c3c2)ccn1 [Compound 33, 4-(4-(4-(2-fluorophenyl)piperazin-1-yl)quinolin-6-yl)pyridin-2-amine] | 0.1 to 1 µM

Compound | EC50
Nc1cc(-c2ccc3ncnc(N4CCN(c5ccccc5)CC4)c3c2)ccn1 [Compound 2, 4-(4-(4-phenylpiperazin-1-yl)quinazolin-6-yl)pyridin-2-amine] | < 0.1 µM
Nc1cc(-c2ccc3ncnc(N4CCC5(CCN(c6ccccn6)C5)CC4)c3c2)ccn1 [Compound 65, 4-(4-(2-(pyridin-2-yl)-2,8-diazaspiro[4.5]decan-8-yl)quinazolin-6-yl)pyridin-2-amine] | < 0.1 µM
Cn1cc(-c2ccc3ncnc(N4CCN(c5ccccn5)CC4)c3c2)cn1 [Compound 7, 6-(1-methyl-1H-pyrazol-4-yl)-4-(4-(pyridin-2-yl)piperazin-1-yl)quinazoline] | 0.1 to 1 µM
Nc1cc(-c2ccc3ncnc(N4CCN(c5ccc(O)cc5)CC4)c3n2)ccn1 [Compound 28, 4-(4-(6-(2-aminopyridin-4-yl)pyrido[3,2-d]pyrimidin-4-yl)piperazin-1-yl)phenol] | < 0.1 µM
O=c1ccccn1C1CCN(c2ncnc3ccc(-c4cn[nH]c4)cc23)CC1 [Compound 59, 1-(1-(6-(1H-pyrazol-4-yl)quinazolin-4-yl)piperidin-4-yl)pyridin-2(1H)-one] | < 0.1 µM
Nc1cc(-c2ccc3ncnc(N4CCN(c5ccccc5)CC4)c3n2)ccn1 [Compound 4, 4-(4-(4-phenylpiperazin-1-yl)pyrido[3,2-d]pyrimidin-6-yl)pyridin-2-amine] | < 0.1 µM
Nc1cc(-c2ccc3ncnc(N4CCN(c5cccnc5)CC4)c3c2)ccn1 [Compound 37, 4-(4-(4-(pyridin-3-yl)piperazin-1-yl)quinazolin-6-yl)pyridin-2-amine] | < 0.1 µM
Fc1ccc(CN2CCCN(c3ncnc4ccc(-c5cn[nH]c5)cc34)CC2)cc1 [Compound 36, 4-(4-(4-fluorobenzyl)-1,4-diazepan-1-yl)-6-(1H-pyrazol-4-yl)quinazoline] | < 0.1 µM
Nc1cc(-c2ccc3ncnc(N4CCN(c5ccccc5)C(=O)C4)c3c2)ccn1 [Compound 38, 4-(6-(2-aminopyridin-4-yl)quinazolin-4-yl)-1-phenylpiperazin-2-one] | 0.1 to 1 µM
Nc1cc(-c2ccc3nccc(N4CCN(c5ccc(F)cc5)CC4)c3c2)ccn1 [Compound 30, 4-(4-(4-(4-fluorophenyl)piperazin-1-yl)quinolin-6-yl)pyridin-2-amine] | < 0.1 µM
Cn1cc(-c2ccc3ncnc(N4CCN(Cc5ccc(F)cc5)CC4)c3c2)cn1 [Compound 42, 4-(4-(4-fluorobenzyl)piperazin-1-yl)-6-(1-methyl-1H-pyrazol-4-yl)quinazoline] | > 1 µM
Nc1cc(-c2ccc3ncnc(N4CCN(c5ccccc5F)CC4)c3n2)ccn1 [Compound 19, 4-(4-(4-(2-fluorophenyl)piperazin-1-yl)pyrido[3,2-d]pyrimidin-6-yl)pyridin-2-amine] | < 0.1 µM
Cc1ccc(N2CCN(c3ccnc4ccc(-c5ccnc(N)c5)cc34)CC2)c(C)c1 [Compound 34, 4-(4-(4-(2,4-dimethylphenyl)piperazin-1-yl)quinolin-6-yl)pyridin-2-amine] | 0.1 to 1 µM
Nc1cc(-c2ccc3nccc(N4CCN(c5ccccn5)CC4)c3c2)ccn1 [Compound 29] | < 0.1 µM
Nc1cc(-c2ccc3ncnc(N4CCN(c5ccccn5)CC4)c3c2)ccn1 [Compound 3, 4-(4-(4-(pyridin-2-yl)piperazin-1-yl)quinazolin-6-yl)pyridin-2-amine] | < 0.1 µM
Nc1cc(-c2ccc3ncnc(N4CCN(C(=O)c5ccccc5F)CC4)c3c2)ccn1 [Compound 46, (4-(6-(2-aminopyridin-4-yl)quinazolin-4-yl)piperazin-1-yl)(2-fluorophenyl)methanone] | > 1 µM
Nc1cc(-c2ccc3ncnc(N4CCN(c5ccncn5)CC4)c3c2)ccn1 [Compound 9, 4-(4-(4-(pyrimidin-4-yl)piperazin-1-yl)quinazolin-6-yl)pyridin-2-amine] | 0.1 to 1 µM
Cc1n[nH]cc1-c1ccc2ncnc(N3CCN(c4ccccn4)CC3)c2c1 [Compound 60, 6-(3-methyl-1H-pyrazol-4-yl)-4-(4-(pyridin-2-yl)piperazin-1-yl)quinazoline] | > 1 µM
c1ccc(N2CCN(c3ncnc4ccc(-c5c[nH]c6ncccc56)cc34)CC2)nc1 [Compound 17, 4-(4-(pyridin-2-yl)piperazin-1-yl)-6-(1H-pyrrolo[2,3-b]pyridin-3-yl)quinazoline] | < 0.1 µM
Nc1cc(-c2ccc3ncnc(N4CCN(c5ccc(F)cc5)CC4)c3n2)ccn1 [Compound 24, 4-(4-(4-(4-fluorophenyl)piperazin-1-yl)pyrido[3,2-d]pyrimidin-6-yl)pyridin-2-amine] | < 0.1 µM
C[C@@H]1CN(c2ccccn2)CCN1c1ncnc2ccc(-c3ccnc(N)c3)cc12 [Compound 44, (R)-4-(4-(2-methyl-4-(pyridin-2-yl)piperazin-1-yl)quinazolin-6-yl)pyridin-2-amine] | 0.1 to 1 µM

Same assay, conditions: stimulated with 10 μM CHIR99021, 24 hours, TopGFP/mCherry

Compound | EC50
4-(4-(2-fluorophenyl)piperazin-1-yl)-6-(1H-pyrazol-3-yl)pyrido[3,2-d]pyrimidine [Compound 23] | < 0.1 µM
4-(4-(2-fluorophenyl)piperazin-1-yl)-6-(1-methyl-1H-pyrazol-3-yl)pyrido[3,2-d]pyrimidine [Compound 20] | > 1 µM
6-(1H-pyrazol-3-yl)-4-(4-(5-(trifluoromethyl)pyridin-2-yl)piperazin-1-yl)pyrido[3,2-d]pyrimidine [Compound 22] | < 0.1 µM
